# Source: patent US10730826B2, “Ketone inhibitors of lysine gingipain” (CORTEXYME, INC., priority 2016, dated 2020)
# Columns and labels:
# Cathepsin H = Cathepsin H (Homo sapiens (Human), UniProt P09668); test: Cathepsin H inhibition assay; assay type: biochemical; details: Table 4; read-out: IC50 (nM) CatH
# Method: (§1) The capacities of compounds of the present invention to inhibit the activity of cathepsins B, H, K, L, and S were measured in similar assays. Boc-Leu-Arg-Arg-AMC (20 μM) in sodium acetate buffer (50 mM, pH 5.5) containing DTT (1 mM) and EDTA (2 mM) was used for the Cathepsin B assay. L-Arg-AMC (20 μM) in sodium acetate buffer (50 mM, pH 5.5) containing DTT (1 mM) and EDTA (2 mM) was used for the Cathepsin H assay. Z-Phe-Arg-AMC (10 μM) in HEPES buffer (50 mM, pH 7.4) containing DTT (2.5 mM) and EDTA (1 mM) was used for the Cathepsin K assay. Z-Phe-Arg-AMC (20 μM) in sodium acetate buffer (50 mM, pH 5.5) containing DTT (1 mM) and EDTA (2 mM) was used for the Cathepsin L assay. Z-Leu-Arg-AMC (10 μM) in sodium acetate buffer (25 mM, pH 4.5) containing DTT (2.5 mM) and NaCl (50 mM) was used for the Cathepsin S assay. The capacities of the compounds to inhibit the activity of cathepsins F, V, and Z were also measured.
# (§2) Further assays to measure the inhibitory activity of compounds of the present invention against Kgp and cathepsins B, H, K, L, and S were conducted as described in Example 66. The capacities of the compounds to inhibit the activity of cathepsins F, V, and Z were also measured.
# [1] = Pharmacokinetics in male CD-1 mice dosed p.o.; assay type: in vivo; details: p.o. 10 mg/kg, compared to reference compound 73
# Cathepsin L = Cathepsin L (Homo sapiens (Human), UniProt P07711); test: Cathepsin L inhibition assay; assay type: biochemical; details: Table 4; read-out: IC50 (nM) CatL
# Sequence of Cathepsin L (P07711 114-333, species assumed): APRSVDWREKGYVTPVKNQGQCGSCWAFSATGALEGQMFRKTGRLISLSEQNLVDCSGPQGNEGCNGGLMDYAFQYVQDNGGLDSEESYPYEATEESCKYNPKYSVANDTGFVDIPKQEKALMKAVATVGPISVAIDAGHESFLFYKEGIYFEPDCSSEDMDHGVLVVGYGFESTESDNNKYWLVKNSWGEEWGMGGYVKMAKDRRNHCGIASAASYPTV
# Method: as §1, §2
# Kgp = Kgp (Porphyromonas gingivalis (Bacteroides gingivalis), UniProt Q51817); test: Cy5 activity-based probe detection of Kgp in P. gingivalis lysate; assay type: binding; details: 100 nM, FIG. 9C
# Sequence of Kgp (Q51817 229-737 limits assumed): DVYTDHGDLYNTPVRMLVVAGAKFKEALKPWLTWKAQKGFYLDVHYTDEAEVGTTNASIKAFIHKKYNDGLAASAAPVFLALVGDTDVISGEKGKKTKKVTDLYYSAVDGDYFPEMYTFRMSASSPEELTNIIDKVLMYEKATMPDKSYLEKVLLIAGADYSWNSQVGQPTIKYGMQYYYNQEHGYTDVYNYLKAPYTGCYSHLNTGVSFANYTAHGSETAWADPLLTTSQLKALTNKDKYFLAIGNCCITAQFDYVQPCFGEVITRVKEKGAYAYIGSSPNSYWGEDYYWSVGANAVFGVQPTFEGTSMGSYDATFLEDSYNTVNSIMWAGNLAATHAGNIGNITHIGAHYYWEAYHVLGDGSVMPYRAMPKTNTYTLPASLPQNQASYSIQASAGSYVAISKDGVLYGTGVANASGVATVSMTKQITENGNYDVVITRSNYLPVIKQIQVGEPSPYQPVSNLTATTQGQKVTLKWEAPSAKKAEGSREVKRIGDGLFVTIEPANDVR
# Method: It has a warhead that binds to the Kgp active site, a peptide-based core, and a Cy5 fluorophore for detection. Labeled target proteins can be visualized by biochemical separation of a sample with fractionation by 2-D gel electrophoresis and detection of fluorescent signals from Cy5 at the appropriate excitation and emission wavelength. Incubation of a fixed concentration of the probe following binding of Kgp to a test compound (e.g., a candidate Kgp inhibitor) results in binding of the activity probe to Kgp active sites not already bound by the test compound.
# 10^8 bacteria were collected and centrifuged at 5000 g for 10 min at 4° C., and the supernatant was discarded. The bacterial cell pellet was lysed with 1 mL of B-Per lysis buffer (Thermo Fischer) on ice for 10 min, then centrifuged for 10 min at 14000 g, 4° C. Supernatant-containing protein lysate was collected. Biological samples were lysed with B-Per lysis buffer for 10 min at 4° C.
# Biological samples, P. gingivalis lysate or purified Kgp were incubated with quenchable Cy5 probe compound 71 (1 μM) for 1 h at 37° C. with shaking. Then, samples were denatured with NUPAGE LDS sample buffer (Thermo Fisher) containing 50 mM DTT at 95° C. for 10 min and subjected to SDS-PAGE electrophoresis using a Criterion 4-15% precast gel (Bio-Rad) and Tris/Glycine/SDS running buffer (Bio-Rad). The gel was run at 75V for 10 min and then 125V for 1.5 h. The gel was then removed from the plastic cassette and subjected to Cy5 visualization with a ChemiDoc imaging system (Bio-Rad).
# Samples were labeled with quenchable Cy5 probe compound 71 (1 μM) for 1 h at 37° C. with shaking. For immunoprecipitation of Cy5 labeled Kgp, the samples were then incubated with 10 μg of rabbit polyclonal CAB102 antibody with rotation overnight at 4° C. Then, samples were incubated with prewashed Dynabead Protein G beads with rotation for 20 min at room temperature. The samples were washed 4 times with 200 μL of washing buffer, using a magnetic rack. […]
# Cathepsin B = Cathepsin B (Homo sapiens (Human), UniProt P07858); test: Cathepsin B inhibition assay; assay type: biochemical; details: Table 4; read-out: IC50 (nM) CatB
# Method: as §1, §2
# cathepsin F = cathepsin F (Homo sapiens (Human), UniProt Q9UBX1); test: Cathepsin F inhibition assay; assay type: biochemical; details: Table 4; read-out: IC50 (nM) CatF
# Sequence of cathepsin F (Q9UBX1 271-484): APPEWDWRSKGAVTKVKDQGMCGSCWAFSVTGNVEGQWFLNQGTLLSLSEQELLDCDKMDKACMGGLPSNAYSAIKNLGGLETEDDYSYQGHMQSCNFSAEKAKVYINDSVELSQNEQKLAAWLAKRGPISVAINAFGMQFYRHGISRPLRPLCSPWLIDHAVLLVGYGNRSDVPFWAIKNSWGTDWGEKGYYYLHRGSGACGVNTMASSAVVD
# Method: as §1, §2
# Cathepsin S = Cathepsin S (Homo sapiens (Human), UniProt P25774); test: Cathepsin S inhibition assay; assay type: biochemical; details: Table 4; read-out: IC50 (nM) CatS
# Sequence of Cathepsin S (P25774 115-331, species assumed): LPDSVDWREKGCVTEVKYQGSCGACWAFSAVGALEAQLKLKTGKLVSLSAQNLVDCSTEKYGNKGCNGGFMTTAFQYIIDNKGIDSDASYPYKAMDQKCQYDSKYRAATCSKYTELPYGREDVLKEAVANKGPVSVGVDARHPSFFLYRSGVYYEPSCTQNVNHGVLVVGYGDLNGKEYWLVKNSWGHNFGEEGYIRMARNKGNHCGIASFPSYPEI
# Method: as §1, §2
# arginine gingipain, Rgp = test: Inhibition of arginine gingipain; assay type: biochemical, Porphyromonas gingivalis; details: 100 nM
# Sequence of Cathepsin H (P09668 98-335, species assumed): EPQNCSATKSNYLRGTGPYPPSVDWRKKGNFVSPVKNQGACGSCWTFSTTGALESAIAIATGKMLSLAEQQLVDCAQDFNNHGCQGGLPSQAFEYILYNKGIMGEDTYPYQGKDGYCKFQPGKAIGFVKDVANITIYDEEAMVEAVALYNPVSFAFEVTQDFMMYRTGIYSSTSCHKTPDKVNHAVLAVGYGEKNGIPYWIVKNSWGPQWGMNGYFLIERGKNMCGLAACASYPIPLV
smiles,measurement,setting,value
"NCCCC[C@H](NC(=O)C1CCCC1)C(=O)COc1c(F)ccc(F)c1F [Compound 1, (S)—N-(7-amino-2-oxo-1-(2,3,6-trifluorophenoxy)heptan-3-yl)cyclopentanecarboxamide]",IC50,Cathepsin H,560 nM
same,oral availability,[1],improved oral availability
same,plasma concentrations,[1],increased plasma concentrations
same,IC50,Cathepsin L,4680 nM
same,competition with probe compound 71 for Kgp active site,Kgp,competes for active site binding
same,IC50,Cathepsin B,380 nM
same,IC50,cathepsin F,6100 nM
same,IC50,Cathepsin S,> 10000 nM
same,"inhibition of arginine gingipain, Rgp","arginine gingipain, Rgp",does not inhibit
